Measurements taken from PubChem BioAssay (NCI).
Where “and” joins values, the source holds several entries; their conditions need not be identical. Equal entries are not always repeated.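 1) Cells in 96-well plates. 2) Compound, 48 h, 5 concentrations. 3) Linear interpolation between surrounding doses. 4) Unreached endpoint = highest concentration. Abbreviation: GI50, concentration required for 50% inhibition of growth. At the TGI there is no net growth.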 Where a SMILES comes first, the peptide text is derived from it. [ ]: non-standard residue; d: D form. The star is where a group is joined. Phe(4-NO2) = N[CH](Cc1ccc([N+](=O)[O-])cc1)C(=O)O; Boc = CC(C)(C)OC(=O)*; OBn = c1ccc(CO*)cc1

Legend:
Assay in all cases: growth of human tumour cells (NCI), 48 h
OVCAR-8 ovarian = system: OVCAR-8 ovarian
SNB-19 CNS = system: SNB-19 CNS
PC-3 prostate = system: PC-3 prostate
LOX IMVI melanoma = system: LOX IMVI melanoma
A498 renal = system: A498 renal
SF-295 CNS = system: SF-295 CNS
COLO 205 colon = system: COLO 205 colon
NCI-H460 lung = system: NCI-H460 lung
HOP-92 NSCLC = system: HOP-92 NSCLC

SMILES | TGI (OVCAR-8 ovarian) [µM] | TGI (SNB-19 CNS) [µM] | TGI (PC-3 prostate) | TGI (LOX IMVI melanoma) [µM] | TGI (A498 renal) | TGI (SF-295 CNS) [µM] | TGI (COLO 205 colon) [µM] | TGI (NCI-H460 lung) | TGI (HOP-92 NSCLC) | GI50 (LOX IMVI melanoma) [µM] | GI50 (OVCAR-8 ovarian) [µM] | GI50 (PC-3 prostate) [µM] | GI50 (A498 renal) [µM] | GI50 (COLO 205 colon) | GI50 (NCI-H460 lung) [µM] | GI50 (HOP-92 NSCLC) [µM]
O=C(Nc1ccccc1)O/N=C(/CBr)c1ccccc1 | 44.1 | 53.9 | 30.3 µM | 16.3 | 64.1 µM | 70.1 | 32.9 | 43.1 µM | 33.2 µM |  |  |  |  |  |  | 
Cc1ccc([N+](=O)[O-])cc1S(=O)(=O)Nc1ccc(C2=NN(c3ccc([N+](=O)[O-])cc3[N+](=O)[O-])C(c3ccccc3)C2)cc1 (stereo unspecified) | 40.2 | 33 | 28.8 µM | 32.2 |  | 35.9 | 37.4 |  | 35.9 µM |  |  |  |  |  |  | 
C=CC[C@H]1[C@@H](O[Si](C)(C)C(C)(C)C)[C@H](n2ccc(=O)[nH]c2=O)O[C@@H]1CO[Si](C)(C)C(C)(C)C | 3.93 | 6.76 | 5.89 µM | 3.44 | 7.83 µM | 3.93 | 3.4 | 4.06 µM | 2.72 µM |  |  |  |  |  |  | 
CC(C)/C(Cl)=N/OC(=O)Nc1ccc(F)c(Cl)c1 | 32.4 | 45.8 | 29.8 µM | 3.59 | 33.3 µM | 29.8 | 3.25 | 35.4 µM | 3 µM |  |  |  |  |  |  | 
O=c1[nH]nc(Cc2ccccc2)n1/N=C/c1c[nH]c2ccccc12 | > 100 | > 100 | > 100 µM | > 100 | > 100 µM | > 100 | > 100 | > 100 µM | > 100 µM |  |  |  |  |  |  | 
C=CCC(C)C12CCNC(Cc3ccc(O)cc31)C2C (stereo unspecified) | > 100 | > 100 |  | > 100 | > 100 µM | > 100 | > 100 | > 100 µM | > 100 µM |  |  |  |  |  |  | 
Cc1ccc(C(=O)OC[C@H]2CC[C@@H](n3cc(N(C)C4CCCCC4)c(=O)[nH]c3=O)O2)cc1 | > 100 | 61.4 | > 100 µM | 38.2 | 46.8 µM | 43.1 | 39.5 | > 100 µM |  |  |  |  |  |  |  | 
COC(=O)CCC(NC(=O)OC(C)(C)C)C(=O)NC(Cc1ccc([N+](=O)[O-])cc1)C(=O)NCC(=O)OCc1ccccc1 (stereo unspecified) (Boc-Glu(OMe)-[Phe(4-NO2)]-Gly-OBn; configuration not given here) | > 100 | > 100 | > 100 µM | > 86.3 | > 100 µM | > 74.1 | > 100 | > 100 µM | > 95.1 µM |  |  |  |  |  |  | 
CC(=O)OC[C@H]1O[C@@H](O[C@H]2[C@H](OC(C)=O)C=CO[C@@H]2COC(C)=O)C(OC(C)=O)[C@H]2OC(C)(C)O[C@H]21 (stereo partly specified) | > 100 | > 100 | > 100 µM | > 100 |  | > 100 | > 100 | > 100 µM | > 100 µM |  |  |  |  |  |  | 
CC(=O)Oc1ccc(/C=C/C(=O)O[C@@H](C)[C@H](C)OC(=O)/C=C/c2ccc(OC(C)=O)c(OC(C)=O)c2)cc1OC(C)=O | 53.6 | > 100 | > 100 µM | 29 | 93.9 µM | 39.3 | > 100 | > 100 µM | 58.2 µM |  |  |  |  |  |  | 
Cc1ccc2c(=O)cc(-c3csc4ccccc34)[nH]c2n1 | 5.55 | 15.3 | 0.0198 µM | > 100 | 1.1 µM | 0.0101 | 0.756 | > 33.9 µM | > 81 µM |  |  |  |  |  |  | 
CC(C)(CO)CNc1cc(=O)[nH]c(N)n1 | > 100 | > 100 | > 100 µM | > 100 | > 100 µM | > 100 | > 100 | > 100 µM | > 100 µM |  |  |  |  |  |  | 
COC(=O)CCCc1ccc2c(c1)CC1(C2)Cc2cc3c(cc2C1)CCCC3 | > 100 |  | > 100 µM | 72.1 | > 100 µM | > 100 | 53 |  | 85.1 µM |  |  |  |  |  |  | 
Cc1nc2ccc(S(=O)(=O)Nc3ccc(Cl)cc3)cc2c(=O)n1NC(=O)CNc1ccc(Cl)cc1 | > 100 | > 100 | > 100 µM | > 100 |  | > 100 | > 100 | > 100 µM | > 100 µM |  |  |  |  |  |  | 
Oc1ccc(/C=C\c2nnc(/C=C\c3ccc(O)c(O)c3)s2)cc1O | > 48.4 | 23.2 | 29.3 µM | > 55.2 | 26.2 µM | 24.8 | 22.5 | 15.6 µM | 29.6 µM |  |  |  |  |  |  | 
CCN1CC(C)Cn2c(=O)[nH]c3cc(Br)cc1c32 (stereo unspecified) | > 100 | > 100 | > 100 µM | > 100 | 80.3 µM | > 100 | > 100 | > 100 µM |  |  |  |  |  |  |  | 
Cn1ccnc1S/C(=C\C=C(C#N)C#N)c1ccc(Cl)cc1 | 3.57 | 10.8 | 9.22 µM | 0.443 | 3.16 µM | 11.3 | > 35.6 | 27.2 µM | 4.18 µM | 0.0671 |  |  |  |  |  | 
NCCC(N)C(=O)O (stereo unspecified) | > 100 | > 100 | > 100 µM | > 100 | > 100 µM | > 100 | > 100 | > 100 µM | > 100 µM |  |  |  |  |  |  | 
CC(C)C[C@H](NC(=O)[C@H](Cc1cccc2ccccc12)NC(=O)N1CCOCC1)B(O)O | 0.0626 | > 100 | 0.0191 µM and < 0.0235 µM | 0.00304 | 0.0288 µM and < 0.0143 µM |  |  | 0.0542 µM and 0.0423 µM | 0.00322 µM and < 0.0122 µM | 0.00114 | 0.0113 | 0.00473 | 0.000871 | 0.00482 µM and 0.015 µM | 0.0151 | 0.000654
CN1CC2=C(OC(N)=C(C#N)C2c2cccs2)/C(=C/c2cccs2)C1 (stereo unspecified) | > 67.7 | > 100 | > 60.5 µM | > 63.3 | > 100 µM | > 100 | > 100 | 58.9 µM | > 100 µM |  |  |  |  |  |  | 
Cc1ccc(C)n2c1nc1ccc3ccccc3c12 | > 100 | > 100 | > 100 µM |  |  | > 100 | > 100 | > 100 µM | > 100 µM |  |  |  |  |  |  | 
COc1ccc(CCn2cnc3ccccc32)cc1 | > 100 | > 100 | > 100 µM |  | > 100 µM | > 100 | > 100 | > 100 µM | > 100 µM |  |  |  |  |  |  | 
N=C(N)SCCON1C(=O)c2ccccc2C1=O | > 100 | > 100 | > 100 µM | > 100 | > 100 µM | > 100 | > 100 | > 100 µM | > 100 µM |  |  |  |  |  |  | 
